{"source": "paper PMC9597602", "about": "“Metal Complexes as Antifungals? From a Crowd-Sourced Compound Library to the First In Vivo Experiments” (JACS Au, 2022)", "key": {"[1]": {"system": "HEK-293 human embryonic kidney cells ATCC CRL-1573", "details": "for HEK CC50: initial CO-ADD screening, 20 h; for CC50: read-out: HEK293 CC50, ranges obtained upon retesting, new batch", "protocol": "The cells were incubated together with the compounds for 20 h at 37 °C in 5% CO2. […] Tamoxifen (Sigma T5648) was used as internal control on each plate."}, "[2]": {"system": "Cryptococcus deuterogattii CBS7750 VGII; Serotype B", "assay": "Antifungal MIC assay, extended panel", "format": "cell-based", "details": "extended panel; 50% inhibition, MIC score 2"}, "[3]": {"system": "Candida albicans ATCC 90028 NCCLS11", "assay": "Antifungal MIC assay", "format": "cell-based", "details": "extended panel", "method_in_brief": "(§1)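 Broth microdilution in YNB medium at a final density of 2.5 × 10^3 CFU/mL, from yeast grown 3 days on YPD agar at 30 °C; incubated 35 °C for 36 h without shaking. MIC is the lowest concentration giving ≥80% growth inhibition (CLSI M27 score 0–1); n = 4–8 from replicate independent runs.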"}, "[4]": {"system": "Candida tropicalis ATCC 750", "assay": "Antifungal MIC assay, extended panel", "format": "cell-based", "details": "extended panel; 50% inhibition, MIC score 2"}, "[5]": {"system": "Candida glabrata ATCC 90030 NCCLS 84", "assay": "Antifungal MIC assay, extended panel", "format": "cell-based", "details": "extended panel; 50% inhibition, MIC score 2"}, "[6]": {"system": "Candida auris CBS12373 KCTC 17810", "assay": "Antifungal MIC assay, extended panel", "format": "cell-based", "details": "extended panel; for MIC50 Candida auris CBS12373: 50% inhibition, MIC score 2", "method_in_brief": "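Yeast was grown for 3 days at 30 °C on YPD agar. Five colonies were suspended to 1 × 10^6 to 5 × 10^6 CFU/mL, checked by OD530, diluted in YNB medium, and dispensed onto compound-loaded 384-well NBS plates at 2.5 × 10^3 CFU/mL in 50 μL. Plates were covered and incubated without shaking at 35 °C for 36 h to determine MIC.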"}, "[7]": {"system": "Candida auris CBS10913 JCM 15448", "assay": "Antifungal MIC assay, extended panel", "format": "cell-based", "details": "extended panel; for MIC: second batch, ≥80 or ≥50% inhibition, read-out: MIC* Candida auris CBS10913; for MIC50 Candida auris CBS10913: 50% inhibition, MIC score 2", "method_in_brief": "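Yeast strains were grown on YPD agar at 30 °C for 3 days. Five colonies were suspended to 1 × 10^6 to 5 × 10^6 CFU/mL (by OD530), diluted in YNB medium, and dispensed into compound-containing 384-well NBS plates to 2.5 × 10^3 CFU/mL in 50 μL. Covered plates were held at 35 °C for 36 h without shaking, and MIC was determined by broth dilution.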"}, "[8]": {"system": "Candida tropicalis ATCC 750", "assay": "Antifungal MIC assay, extended panel", "format": "cell-based", "details": "extended panel, second batch; ≥80 or ≥50% inhibition", "method_in_brief": "as §1"}, "[9]": {"system": "Cryptococcus deuterogattii CBS7750 VGII; Serotype B", "assay": "Antifungal MIC assay, extended panel", "format": "cell-based", "details": "extended panel, second batch; ≥80 or ≥50% inhibition", "method_in_brief": "as §1"}, "[10]": {"system": "Cryptococcus deuterogattii ATCC 32609 VGII", "assay": "Antifungal MIC assay, extended panel", "format": "cell-based", "details": "extended panel, second batch; ≥80 or ≥50% inhibition"}, "[11]": {"system": "Candida glabrata ATCC 90030 NCCLS 84", "assay": "Antifungal MIC assay, extended panel", "format": "cell-based", "details": "extended panel, second batch; ≥80 or ≥50% inhibition", "method_in_brief": "as §1"}, "[12]": {"system": "Cryptococcus neoformans H99 ATCC 208821 type strain", "assay": "Antifungal MIC assay", "format": "cell-based", "details": "extended panel; for MIC Cryptococcus neoformans ATCC 208821: second batch, ≥80 or ≥50% inhibition; for MIC50 Cryptococcus neoformans ATCC 208821: 50% inhibition, MIC score 2", "method_in_brief": "as §1"}, "human red blood cells": {"system": "human red blood cells", "format": "cell-based", "method_in_brief": "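Washed human erythrocytes at 0.5 × 10^8 cells/mL incubated with compound, then centrifuged. Haemolysis read as supernatant OD405, normalised to untreated cells (0%) and 1% Triton X-100 (100%), with melittin as internal plate control.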"}, "G. mellonella larvae": {"system": "G. mellonella larvae", "assay": "Galleria mellonella in vivo toxicity assay", "details": "10 μL of the highest concentration injected, monitored 6 days", "protocol": "Based on criteria of overall antifungal activity, cytotoxicity, and hemolysis as well as compound availability, we selected compounds Co1, Ag2, Eu1, Ir1, Pt1, Pt2, Pt4, Pt5, Au1, Au2, and Au4 to conduct a preliminary in vivo toxicity assay. […] The compounds were dissolved in DMSO and diluted to the highest possible final concentration (Table 3). The larvae were then monitored for 6 days for survival and health using the G. mellonella Health Index Scoring System.[111] […] For the other compounds, no detrimental effects could be observed in the larvae over the monitoring period. […] Nevertheless, factors such as the metabolism, excretion, and/or accumulation of the various metal complexes and their metabolites will still need to be studied more rigorously in rodent models if they are to be advanced into the preclinical pipeline.\nThe toxicity of compounds was tested in vivo using the G. mellonella model using our previously described methods,[61] Briefly, G. mellonella larvae were reared in a controlled environmental room at Macquarie University, Sydney, Australia, at 30 °C and 65% humidity with a 12-h light/dark cycle. Larvae (200–250 mg) were individually injected with 10 μL of chemical into the last right pro-leg using a 100 μL syringe (Hamilton Ltd.). Each compound was dissolved in DMSO at the maximum concentration given in Table 3 and also diluted in water to final concentrations of 100, 10, and 1 μM. We injected five larvae in triplicate for each of the four dilutions for each compound. Larvae injected with different dilutions of DMSO (10^–1, 10^–2, and 10^–3) were included as negative controls. Following injection, the larvae were incubated at 30 °C and monitored every 24 h for 6 days. Larval performance was assessed according to the G. mellonella Health Index Scoring System.[111] The experiments were repeated over three separate days for biological triplicates."}, "[13]": {"system": "Cryptococcus deuterogattii ATCC 32609 VGII", "assay": "Antifungal MIC assay, extended panel", "format": "cell-based", "details": "extended panel; 50% inhibition, MIC score 2"}, "[14]": {"system": "Acinetobacter baumannii ATCC 19606 type strain", "assay": "CO-ADD antibacterial MIC assay", "format": "cell-based", "details": "initial CO-ADD dose-response screening; ≥80% growth inhibition", "method_in_brief": "(§2)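 Strains grown overnight in cation-adjusted Mueller Hinton broth at 37 °C, diluted 40-fold and regrown 1.5–3 h to mid-log, then seeded at 5 × 10^5 CFU/mL with compound. After 18 h static incubation at 37 °C, OD600 was read; MIC is the lowest concentration giving ≥80% growth inhibition.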"}, "[15]": {"system": "Pseudomonas aeruginosa ATCC 27853 QC control strain", "assay": "CO-ADD antibacterial MIC assay", "format": "cell-based", "details": "initial CO-ADD dose-response screening; ≥80% growth inhibition", "method_in_brief": "as §2"}, "[16]": {"system": "Escherichia coli ATCC 25922 FDA control strain", "assay": "CO-ADD antibacterial MIC assay", "format": "cell-based", "details": "initial CO-ADD dose-response screening; ≥80% growth inhibition", "method_in_brief": "as §2"}, "[17]": {"details": "second batch, ≥80 or ≥50% inhibition"}, "[18]": {"details": "ranges obtained upon retesting, new batch"}}, "note": "“Also recorded” adds a separate entry of the source. Like-named read-outs stand apart in the source and are kept apart here."}
{"smiles": "c1cnc([S][Au][PH](c2ccco2)(c2ccco2)c2ccco2)nc1", "note": "[Au1]", "values": [{"measurement": "HEK CC50", "setting": "[1]", "result": ">32", "unit": "µg/mL"}, {"measurement": "CC50", "setting": "[1]", "result": "0.1 to 0.6", "unit": "µM"}, {"measurement": "MIC50 Cryptococcus deuterogattii CBS7750", "setting": "[2]", "result": "0.024 to 0.098", "unit": "µM"}, {"measurement": "MIC Candida albicans ATCC 90028", "setting": "[3]; [17]", "result": "0.049 to 0.391", "unit": "µM"}, {"measurement": "MIC50 Candida albicans ATCC 90028", "setting": "[3]; 50% inhibition, MIC score 2", "result": "0.049 to 0.391", "unit": "µM"}, {"measurement": "MIC50 Candida tropicalis ATCC 750", "setting": "[4]", "result": "0.049 to 0.391", "unit": "µM"}, {"measurement": "MIC50 Candida glabrata ATCC 90030", "setting": "[5]", "result": "0.098 to 0.391", "unit": "µM"}, {"measurement": "MIC Candida auris CBS12373", "setting": "[6]; [17]", "result": "0.098 to 0.391", "unit": "µM"}, {"measurement": "MIC50 Candida auris CBS12373", "setting": "[6]", "result": "0.098 to 0.391", "unit": "µM"}, {"measurement": "MIC", "setting": "[7]", "result": 0.098, "unit": "µM"}, {"measurement": "MIC50 Candida auris CBS10913", "setting": "[7]", "result": "0.098 to 0.195", "unit": "µM"}, {"measurement": "MIC Candida tropicalis ATCC 750", "setting": "[8]", "result": "0.049 to 0.391", "unit": "µM"}, {"measurement": "MIC Cryptococcus deuterogattii CBS7750", "setting": "[9]", "result": "0.024 to 0.391", "unit": "µM"}, {"measurement": "MIC Cryptococcus deuterogattii ATCC 32609", "setting": "[10]", "result": "0.098 to 0.391", "unit": "µM"}, {"measurement": "MIC Candida glabrata ATCC 90030", "setting": "[11]", "result": "0.098 to 0.781", "unit": "µM"}, {"measurement": "MIC Cryptococcus neoformans ATCC 208821", "setting": "[12]", "result": "0.098 to 0.195", "unit": "µM"}, {"measurement": "MIC50 Cryptococcus neoformans ATCC 208821", "setting": "[12]", "result": "0.098 to 0.195", "unit": "µM"}, {"measurement": "RBC HC10", "setting": "human red blood cells; [18]", "result": "90 to 200", "unit": "µM"}, {"measurement": "toxicity", "setting": "G. mellonella larvae", "result": "nontoxic"}, {"measurement": "MIC50 Cryptococcus deuterogattii ATCC 32609", "setting": "[13]", "result": "0.024 to 0.049", "unit": "µM"}]}
{"smiles": "c1ccc([PH]([Au][S]c2ccccn2)(c2ccccc2)c2ccccc2)cc1", "note": "[Au2]", "values": [{"measurement": "HEK CC50", "setting": "[1]", "result": ">32", "unit": "µg/mL"}, {"measurement": "CC50", "setting": "[1]", "result": "0.8 to 200", "unit": "µM"}, {"measurement": "MIC50 Cryptococcus deuterogattii CBS7750", "setting": "[2]", "result": "0.049 to 1.56", "unit": "µM"}, {"measurement": "MIC50 Candida tropicalis ATCC 750", "setting": "[4]", "result": "≥ 200", "unit": "µM"}, {"measurement": "MIC50 Candida glabrata ATCC 90030", "setting": "[5]", "result": "> 200", "unit": "µM"}, {"measurement": "MIC", "setting": "[6]; second batch, ≥80 or ≥50% inhibition, read-out: MIC* Candida auris CBS12373", "result": 0.195, "unit": "µM"}, {"measurement": "MIC50 Candida auris CBS12373", "setting": "[6]", "result": "0.098 to 0.195", "unit": "µM"}, {"measurement": "MIC", "setting": "[7]", "result": 0.195, "unit": "µM"}, {"measurement": "MIC50 Candida auris CBS10913", "setting": "[7]", "result": "0.098 to 1.56", "unit": "µM"}, {"measurement": "MIC", "setting": "[8]", "result": ">200", "unit": "µM"}, {"measurement": "MIC", "setting": "[9]", "result": 0.098, "unit": "µM"}, {"measurement": "MIC Cryptococcus deuterogattii ATCC 32609", "setting": "[10]", "result": "0.049 to 0.391", "unit": "µM"}, {"measurement": "MIC", "setting": "[11]", "result": ">200", "unit": "µM"}, {"measurement": "MIC Cryptococcus neoformans ATCC 208821", "setting": "[12]", "result": "0.024 to 0.195", "unit": "µM"}, {"measurement": "MIC50 Cryptococcus neoformans ATCC 208821", "setting": "[12]", "result": "0.024 to 0.195", "unit": "µM"}, {"measurement": "RBC HC10", "setting": "human red blood cells; initial CO-ADD screening, 1 h, 10% hemolysis", "result": ">32", "unit": "µg/mL"}, {"measurement": "RBC HC10", "setting": "human red blood cells; [18]", "result": "> 200", "unit": "µM"}, {"measurement": "MIC Ab", "setting": "[14]", "result": ">32", "unit": "µg/mL"}, {"measurement": "MIC Pa", "setting": "[15]", "result": ">32", "unit": "µg/mL"}, {"measurement": "MIC Ec", "setting": "[16]", "result": ">32", "unit": "µg/mL"}, {"measurement": "toxicity", "setting": "G. mellonella larvae", "result": "showed signs of toxicity; also recorded: toxic at 1 mM"}, {"measurement": "MIC50 Cryptococcus deuterogattii ATCC 32609", "setting": "[13]", "result": "0.049 to 0.195", "unit": "µM"}]}
